This assay addresses CRBN-DDB1 (Homo sapiens (Human), UniProt Q96SW2). Put plainly: CRBN-DDB1 fluorescence polarization (FP) binding assay. The settings on record: displacement of (−)-Thalidomide-Alexa Fluor or Pomalidomide-fluorescein probe; 400 nM CRBN-DDB1, 5 nM probe, 60 min, room temperature. As to the method: Measuring compound ligand binding to CRBN-DDB1 was carried out using an established sensitive and quantitative in vitro fluorescence polarization (FP) based binding assay. […] Compounds were dispensed from serially diluted DMSO stock into black 384-well compatible fluorescence polarization plates using an Echo acoustic dispenser. Compound binding to CRBN-DDB1 was measured by displacement of either a (−)-Thalidomide-Alexa Fluor® or Pomalidomide-fluorescein conjugated probe dye. […] Matching control wells excluding CRBN-DDB1 were used to correct for background fluorescence. Plates were read on an Envision plate reader with appropriate FP filter sets. The corrected S (perpendicular) and P (parallel) values were used to calculate fluorescence polarization (FP) with the following equation: FP=1000*(S−G*P)/(S+G*P).
(In general: Polarisation of emitted light reports the rotation of a fluorescent probe.)

Sequence of CRBN-DDB1 (Q96SW2 whole entry): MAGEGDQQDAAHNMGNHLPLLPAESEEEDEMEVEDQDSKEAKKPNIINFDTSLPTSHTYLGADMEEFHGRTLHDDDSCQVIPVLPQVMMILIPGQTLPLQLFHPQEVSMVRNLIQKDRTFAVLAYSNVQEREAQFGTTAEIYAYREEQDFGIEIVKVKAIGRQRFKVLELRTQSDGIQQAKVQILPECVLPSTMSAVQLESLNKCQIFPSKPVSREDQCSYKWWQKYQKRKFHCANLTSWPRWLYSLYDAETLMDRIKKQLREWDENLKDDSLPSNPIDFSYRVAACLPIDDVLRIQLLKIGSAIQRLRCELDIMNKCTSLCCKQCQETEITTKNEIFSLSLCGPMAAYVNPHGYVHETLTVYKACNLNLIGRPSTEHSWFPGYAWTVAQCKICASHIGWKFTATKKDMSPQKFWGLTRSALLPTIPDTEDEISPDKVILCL
Sequence of CRBN-DDB1 (Q16531 whole entry partner): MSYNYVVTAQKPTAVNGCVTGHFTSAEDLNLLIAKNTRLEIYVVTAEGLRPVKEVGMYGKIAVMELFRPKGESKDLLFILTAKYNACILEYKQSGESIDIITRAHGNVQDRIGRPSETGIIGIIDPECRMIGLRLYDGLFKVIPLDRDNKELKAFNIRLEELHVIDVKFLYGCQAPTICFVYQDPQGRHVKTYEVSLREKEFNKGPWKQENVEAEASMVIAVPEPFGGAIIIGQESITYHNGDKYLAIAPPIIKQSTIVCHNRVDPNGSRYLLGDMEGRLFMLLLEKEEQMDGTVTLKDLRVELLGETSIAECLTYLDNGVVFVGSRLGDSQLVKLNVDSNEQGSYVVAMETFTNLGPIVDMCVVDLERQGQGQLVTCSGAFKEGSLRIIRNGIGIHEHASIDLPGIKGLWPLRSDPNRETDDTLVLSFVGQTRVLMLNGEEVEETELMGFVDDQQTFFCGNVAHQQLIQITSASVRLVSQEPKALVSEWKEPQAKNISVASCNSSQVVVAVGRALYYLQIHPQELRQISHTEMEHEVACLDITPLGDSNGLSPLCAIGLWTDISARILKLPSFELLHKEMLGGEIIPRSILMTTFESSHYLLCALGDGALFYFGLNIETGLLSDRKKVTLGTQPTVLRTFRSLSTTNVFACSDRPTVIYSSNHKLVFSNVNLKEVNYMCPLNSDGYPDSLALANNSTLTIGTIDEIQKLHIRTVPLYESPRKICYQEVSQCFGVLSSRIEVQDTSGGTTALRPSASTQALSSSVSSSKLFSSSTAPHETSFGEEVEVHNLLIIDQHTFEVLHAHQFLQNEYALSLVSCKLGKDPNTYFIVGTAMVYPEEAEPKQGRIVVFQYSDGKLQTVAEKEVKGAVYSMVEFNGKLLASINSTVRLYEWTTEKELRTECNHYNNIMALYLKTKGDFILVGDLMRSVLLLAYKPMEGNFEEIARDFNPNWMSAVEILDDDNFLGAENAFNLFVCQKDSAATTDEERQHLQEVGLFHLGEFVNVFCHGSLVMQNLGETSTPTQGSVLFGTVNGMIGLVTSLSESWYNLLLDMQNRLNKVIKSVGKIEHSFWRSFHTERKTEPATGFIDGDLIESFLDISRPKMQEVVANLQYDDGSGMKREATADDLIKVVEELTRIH

For orientation: Kd means the concentration at which binding is half-saturated. Read a low Kd as tighter binding. Regarding `O=C1NC(=O)C2(CC2)CC1N1C(=O)c2ccccc2C1=O` (stereo not shown) [Compound 3, 2-(4,6-dioxo-5-azaspiro[2.5]octan-7-yl)isoindoline-1,3-dione], the Kd was 1 to 1000 µM.

The record behind these values is US10646575B2, “Heterocyclic degronimers for target protein degradation” (C4 Therapeutics, Inc., priority 2016, dated 2020).
